One molecule from US20190159457A1, “Combinatorial Compositions of Benzoxaboroles and Biologic Agents” (Boragen, Inc., priority 2017, published 2019) can be followed below.

What all share (assay type): cell-based
Experiment [1] concerns Bacillus subtilis. In words: Toxicity of oxaborole compound on Bacillus subtilis (MIC). As to conditions: 48 hours, about 37 °C, 1×10^5 CFU/mL. As to the method:
The final concentration of Bacillus subtilis was 1×10^5 CFU/mL.
Plates sealed with clear polyester film (VWR) were incubated at a temperature of about 37° C. The progress of Bacillus subtilis growth was monitored at 48 hours.

Experiment [2] has as its system Mycosphaerella graminicola (SLB). Description: Inhibition rate of fungal hyphae growth on PDA petri dish. As to conditions: Zymoseptoria tritici, Bacillus subtilis −. As to the method: (§1) The synergistic or additive effect of Bacillus subtilis in combination with an oxaborole compound on fungicidal compounds was evaluated by determining the inhibition rate of fungal growth on a petri dish. The oxaborole compound used for the example was BAG8. The inhibition rate was calculated as: inhibition %=(X−Y)/X*100, where X is the diameter of fungal hyphae grown on control without any fungicidal compound or beneficial bacteria.
(§2) The ability of Bacillus subtilis to inhibit growth of the four example fungal pathogens was evaluated by determining the inhibition rate of fungal hyphae on the PDA petri dishes (diameter of 100 mm) with the bacteria (initial bacterial cells: 2000CFU). 0.2 mL of Bacillus subtilis (lx 10^3, 1×10^4, 1×10^5, 1×10^6FU/mL) was spread on the PDA plates. The plates were cultured at 37° C. overnight, followed by inoculating the fresh fungal agar plugs ( 3/16 inch, diameter). The PDA plates with fungal agar plugs were cultured at 25° C. for 4-7 days, and then diameters of hyphae were measured. The inhibition rate was calculated as: inhibition %=(X−Y)/X*100, where X is the diameter of fungal hyphae grown on control without the bacteria. Inhibition rate of 100% means that the fungus cannot grow on PDA medium.
(§3) Testing was performed to compare inhibition performance of BAG8 by itself versus BAG8 in combination with Bacillis subtilis. Initially, the PDA plates (diameter of 100 mm) were prepared with various concentrations (0, 0.2, 0.5, 1, 2, 5 and 10 ug/mL) of the BAG8 compound;
(§4) Then, 0.2 mL of Bacillus subtilis (1×10^4CFU/mL) were spread onto some of the PDA plates with fungicide compounds. The […] Botrytis cinerea, Fusarium oxysporum f sp. Cubense, Mycosphaerella graminicola, and Sclerotinia sclerotiorum.
(§5) The PDA plates with the combined BAG8 and Bacillus subtilis were inoculated with the fresh fungal agar plugs ( 3/16 inch, diameters) and the plates were cultured at 25° C. for 4-7 days, and then diameters of hyphae were measured. The inhibition rate was calculated as: inhibition %=(X−Y)/X*100, where X is the diameter of fungal hyphae grown on control without the bacteria.

In experiment [3] the test system is Fusarium oxysporum f sp. cubense tropical race 4 (FOC.TR4). The description is as above. As to conditions: Bacillus subtilis −. As to the method:
as §1, §2, §3, §4, §5

Experiment [4] concerns Sclerotinia sclerotiorum 1980 (Ss1980). The experiment is described as above. As to conditions: Bacillus subtilis −. The protocol: as §1, §2, §3, §4, §5
For experiment [5], the system named is Botrytis cinerea B05.10 (B05.10). The experiment is described as above. As to conditions: Bacillus subtilis −. The protocol:
as §1, §2, §3, §4, §5

For `OB1OCc2cc(Cl)ccc21` [BAG8, 5-chlorobenzo[c][1,2]oxaborol-1(3H)-ol], in experiment [1], the MIC – broadly, the smallest concentration in the dilution series that meets the test's criterion for growth inhibition – was > 25 µg/mL. Moreover, the inhibition (in general, the share of the control response that was lost under treatment) at 0.2 µg/mL in experiment [2] (BAG8 0.2 ug/mL) stood at 6%; in experiment [3] (BAG8 0.2 ug/mL), 9%; in experiment [4] (BAG8 0.2 ug/mL), 12%; in experiment [5] (BAG8 0.2 ug/mL), 10%. In addition, the inhibition at 0.5 µg/mL was determined as 38% in experiment [2] (BAG8 0.5 ug/mL), 47% in experiment [3] (BAG8 0.5 ug/mL), 48% in experiment [4] (BAG8 0.5 ug/mL) and 23% in experiment [5] (BAG8 0.5 ug/mL). Moreover, the inhibition at 1 µg/mL in experiment [2] (BAG8 1 ug/mL) amounted to 93%; in experiment [3] (BAG8 1 ug/mL) it was 95%; in experiment [4] (BAG8 1 ug/mL) it was 94%; in experiment [5] (BAG8 1 ug/mL), 69%. Moreover, the inhibition at 2 µg/mL in experiment [2] (BAG8 2 ug/mL) is 96%; in experiment [3] (BAG8 2 ug/mL), 94%; in experiment [4] (BAG8 2 ug/mL) it was 98%; in experiment [5] (BAG8 2 ug/mL), 98%.
